This note sets out measurements from patent US20240067685A1, “HIDDEN ANTIBIOTICS IN THE HUMAN PROTEOME” (priority 2022, published 2024).

No end group written: not given here. A value given as a limit tells only on which side of the number the result lay.

The subject of one series is S. aureus MRSA (WKZ-2). As for the experimental part:
(§1) Antimicrobial activity. The antimicrobial activity of ApoB-derived encrypted peptides was assessed against a panel of skin pathogens, such as S. epidermidis ATCC 35984, S. aureus ATCC 12600, A. baumannii ATCC 17878, K. pneumoniae ATCC 700603, S. aureus MRSA (WK7-2), E. faecalis ATCC 29212 and P. aeruginosa PAO1 by using the broth microdilution method. ^20 Bacteria were grown to mid-logarithmic phase in MHB at 37° C. […] Following incubation over-night, each sample was diluted, plated on TSA, and incubated at 37° C. for 24 h to count the number of colonies. All experiments were performed in three independent replicates.

For series [1], the system named is P. aeruginosa wild-type PAO1. As for the experimental part:
as §1

The next series deals with E. faecalis ATCC 29212. As for the experimental part: as §1
Series [2] in a line: in vitro. The conditions noted are these: 25% fetal bovine serum. The procedure:
To determine its proteolytic stability, it was assessed whether (ri)-r(P)ApoBS^Pro was less susceptible to serum proteases compared to its parent peptide r(P)ApoBS^Pro.
Stability assay. The resistance to enzymatic degradation assay was performed according to the method described by Powell et al. ^72 Briefly, peptides at 2 mg mL^−1 were exposed to a solution of 25% fetal bovine serum in water. Aliquots were collected after 0.5, 1, 2, and 4 h and 10 μL of trifluoroacetic acid was added to them while the samples were on ice for 10 min. The enzymatic degradation of peptides was followed by reverse-phase high performance liquid chromatography coupled to mass spectrometry (RP-HPLC/ESI-MS). The percentage of remaining peptide was calculated by integrating the area under the curve related to the peptide at time point zero.
where AUCX is the area under the curve of the peak related to the peptide after t h (t=0.5, 1, 2, and 4 h), and AUC0 is the area under the curve of the peak related to the peptide at the beginning of the experiment. Three independent experimental replicates were performed, as previously described. ^73

Series [3] is described as follows: in vitro. The series is classed as cell-based. The following applies: human. The procedure: Cytokine-mediated immunogenicity is one potential side effect of peptide therapeutics as it can lead to cytotoxic effects and allergic responses. ^21,45 To determine whether the peptides exerted any toxic effects against eukaryotic cells and to verify their biocompatibility towards skin cell cultures, dose-response and time-course 3-(4, 5-dimethylthiazolyl-2)-2,5-diphenyltetrazolium bromide (MTT) and lactate dehydrogenase (LDH) cytotoxicity assays were performed against both human dermal fibroblasts (HDF) and human epidermoid carcinoma cell (A431) lines. Due to their cationic nature, most AMPs preferentially interact with negatively charged membranes, such as those of bacteria. […] To evaluate whether peptides exert cytostatic or cytotoxic effects through membrane damage, LDH release in culture medium was detected as a biomarker of membrane damage. ^50 Thus, human dermal fibroblasts (HDF) and human epidermoid carcinoma cells (A431) were treated with each peptide at a concentration of 10 and 20 μmol L^−1 for 72 h. No significant LDH release was detected, thus indicating no damage to eukaryotic cell membranes caused by exposure to the peptides (FIG. 7C).
Eukaryotic cell culture and cytotoxicity assays. […] Cell viability was expressed as means of the percentage values compared to control untreated cells. […]

Series [4] deals with S. epidermidis ATCC 35984. Description: microbe, parasite or virus in culture. The following applies: ATCC 35984. The procedure:
as §1

For series [5], the system named is K. pneumoniae ATCC 700603. The series can be described thus: microbe, parasite or virus in culture. The following applies: ATCC 700603. As for the experimental part: as §1
For a further series, the system named is A. baumannii ATCC 17878. The series can be described thus: microbe, parasite or virus in culture. The following applies: ATCC 17878. As for the experimental part:
as §1

A further series has as its system S. aureus ATCC 12600. Description: microbe, parasite or virus in culture. The conditions noted are these: ATCC 12600. The procedure: as §1
The test system of series [6] is Staphylococcus aureus ATCC 12600. Type of series: cell-based. The conditions noted are these: ATCC 12600, 16 h. The procedure: (§2) Antimicrobial activity of peptides upon pre-incubation in 10% serum. The antimicrobial activity of r(P)ApoBS^Pro and (ri)-r(P)ApoBS^Pro was evaluated against four bacterial strains upon pre-incubation in 10% FBS (fetal bovine serum, Microgem Lab, Cat. 51860, Italy). All the peptides were incubated for 1 h or 16 h in serum at 37° C. (water bath) prior to MIC value determination by standard protocols. ^20 Experiments were carried out in triplicate for each peptide.

The test system of series [7] is Acinetobacter baumannii ATCC 17878. Type of series: cell-based. The conditions noted are these: ATCC 17878, 16 h. The procedure:
as §2

Series [8] concerns Klebsiella pneumoniae ATCC 700603. The series is classed as cell-based. The following applies: ATCC 700603, 16 h. As for the experimental part: as §2

In the case of “PHVALKPGKLKFIIPSPKRPVKLLSG [r(P)ApoBS^Pro]”, the MIC turned out to be 10 µM in the series with S. aureus MRSA (WKZ-2); 10 µM in series [1]; 20 µM against E. faecalis ATCC 29212; 10 µM in series [4]; 5 µM in series [5]; 5 µM in the series with A. baumannii ATCC 17878. Moreover, the MIC in the series on S. aureus ATCC 12600 turned out to be 20 µM. For the same sequence, the “stability in the presence of serum” value in the series “in vitro [2]” is listed as “degraded within minutes”. Further, the “exposure time after which peptide degraded” value in the series “in vitro [2]” (RP-HPLC/ESI-MS) came to 30 min. The cytotoxicity at 24 h in “in vitro [3]” is 30%. For the same sequence, the “MIC upon incubation in serum” value in [6], in series [7] and in series [8] was more than 80 µM each time.
